SMILES strings stand for the structures.

The data set in a line: Lipophilicity, log P of the compound. It is filed as physicochemical. The following applies: octanol/water; read-out: logP.
As for `NC(=O)CNC(=O)Cc1ccccc1`, the logP (commonly a log measure of how a compound divides between an organic and an aqueous phase) came to 0.06.

For `Cc1cn[nH]c1NC=C1C(=O)c2ccccc2C1=O`, the logP came out at 1.79.

For `Cc1nonc1NC(=O)CN1CCN(C)CC1`, the log partition coefficient (logP) is -1.04.

Regarding `NCCCNc1ccc([N+](=O)[O-])c(N)c1`, the logP was 0.38.

Turning to `O=C(O)CSc1nc(O)c2ccccc2n1`, the logP is 1.34.

`COc1ccc(/C=N/NC(=O)Cc2ccc([N+](=O)[O-])cc2)cc1`: the logP was 3.67.

For `C/N=C(/NC)SC1CC(=O)N(c2cccc(C(=O)O)c2)C1=O` (stereo not drawn), the logP was 1.25.

As for `O=C(c1ccccc1O)c1[nH]ncc1[N+](=O)[O-]`, the logP worked out at 1.6.

For `Nc1ccccc1N/C=C1/C(=O)CNC1=O`, the logP was -0.57.

Turning to `[O-][NH+]1C=CC=C/C1=C1\C=CC=C[NH+]1[O-]` (stereo not drawn), the logP amounted to 1.95.

With `Nc1nonc1N/N=C/c1ccc(O)c(O)c1`, the logP was determined as 3.18.

Consider `C1CN2CCC1/C(=N\Nc1nnn[nH]1)C2`, for which the logP is 1.56.

With `Nc1nnc(CCN2C(=O)c3ccccc3C2=O)s1`, the log partition coefficient (logP) was determined as 1.39.

Consider `Nc1nonc1-n1cc(-c2ccccc2)nn1`, for which the logP is 1.15.

`Cc1ccc(O)c(/C=N/c2cccc(C(=O)O)c2)c1`: the logP was 3.28.

In the case of `NC(=O)c1ccc[n+](-c2ccccc2)c1`, the lipophilicity (logP) worked out at 2.15.

Turning to `c1cncc(CNCc2cccnc2)c1`, the logP is 1.01.

Turning to `NCc1ccc2c3c(cccc13)C(=O)N2`, the logP is 1.36.

`O=C(Oc1ccc(S(=O)(=O)c2ccc(OC(=O)c3ccco3)cc2)cc1)c1ccco1`: the logP came out at 3.38.

Regarding `CCOc1ccc(Nc2nc(CC(=O)O)cs2)cc1`, the logP is 2.29.

In the case of `NCCNS(=O)(=O)c1cccc(C(=O)O)c1`, the lipophilicity (logP) is -0.2.

On to `O=C1CN=C(Nc2nc3ccccc3o2)N1`, for which the logP is 0.62.

`O=C1c2ccccc2-c2nc3n[nH]nc3nc21`: the logP was determined as 2.

As for `Cc1cccc2c(CCN)c[nH]c12`, the lipophilicity (logP) was found to be 1.9.

Take `Cc1cc(-c2ccc(F)cc2)nc2cc(C(=O)O)nn12`: the logP is 2.08.

As for `COc1ccc(C(=O)n2nnc3ccccc32)cc1`, the lipophilicity (logP) turned out to be 2.77.

As to `COc1ccc2[nH]c(SCC(N)=O)nc2c1`, the logP turned out to be 1.01.

In the case of `O=C(Cc1ccc(F)cc1)NNC(=O)Cn1cnnn1`, the logP is -0.66.

For `C=CCNc1nc(-c2cccs2)c(CC(=O)O)s1`, the logP came to 2.29.

Turning to `O=C(O)CCC(=O)Nc1ccc(Oc2ccccc2)cc1`, the log partition coefficient (logP) was found to be 2.36.

Take `C=CCn1c(S)nc2sc3c(c2c1=O)CCN(C)C3`: the logP turned out to be 2.29.

Regarding `O=C(O)Cc1c(C(=O)O)[nH]c2ccccc12`, the logP was determined as 1.67.

Consider `NC1=N[NH+]([O-])c2ccccc2[NH+]1[O-]` (stereo not drawn), for which the logP came to 1.22.

Turning to `O=C(O)c1ccccc1-c1nc(O)c2ccccc2n1`, the lipophilicity (logP) was 2.25.

On to `O=C1Nc2ccccc2Nc2ccccc21`, for which the lipophilicity (logP) is 2.27.

As for `O=C(O)CSc1cccc2ccccc12`, the logP turned out to be 3.22.

On to `Cc1cc(C(=O)O)nn1-c1ccccc1`, for which the logP is 1.47.

For `O=C(O)Cc1c(O)c2c(c(O)c1Cl)C(=O)c1ccccc1C2=O`, the lipophilicity (logP) was determined as 2.69.

As to `NCC(=O)N(O)Cc1ccccc1`, the logP was 0.19.

As to `Cc1nc(NCCCC(=O)O)c2ccccc2n1`, the lipophilicity (logP) was determined as 1.38.

Take `COc1ccc(NC(=O)CSc2nnc(C)n2-c2ccc(C)cc2)cc1`: the logP amounted to 3.95.

As to `O=C(CNC(=O)c1ccc2[nH]c3ccccc3c2c1)NCCO`, the logP amounted to 1.4.

For the compound `c1ccc2[nH]c(Cc3ccncc3)nc2c1`, the logP was 2.14.

For `COC(=O)c1ccc(/C=N/n2cnnc2)cc1`, the logP is 1.55.

For the compound `N=C1S/C(=C\c2ccccc2)C(=O)N1c1nonc1N`, the logP was determined as 2.4.

With `NS(=O)(=O)c1ccc2c(N=O)c(O)ccc2c1`, the lipophilicity (logP) was determined as 1.3.

On to `COc1ccc(CNC(=N)NC(=N)N)cc1`, for which the logP was 1.46.

Take `Cc1ccccc1C(=O)O/N=C(\N)c1cccnc1`: the logP came out at 2.61.

(Values after ChEMBL document CHEMBL3880431, “Heme oxygenase inhibitors, screening methods for heme oxygenase inhibitors and methods of use of heme oxygenase inhibitors for antimicrobial therapy” (2013).)
